The record followed here is PubChem BioAssay (NCI).

Some test systems named below: A498 renal; ACHN renal; HCT-15 colon; HT29 colon; UACC-257 melanoma; CCRF-CEM leukemia; U251 CNS; MDA-MB-435; NCI/ADR-RES ovarian; T-47D breast.
Holding throughout (assay): NCI anticancer screen, dose series, 48 h

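Interpolation was linear, between the two tested concentrations surrounding the appropriate level; five concentrations were tested over 48 hours in 96-well plates. The concentration for 50% growth inhibition is given as GI50. TGI: concentration producing complete growth inhibition.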

On to `N#C/C(=C1\OC(=N)C(c2ccc(Cl)cc2Cl)C1=O)c1ccc(Cl)cc1Cl` (stereo unspecified), for which the TGI in the test with A498 renal, in the test on ACHN renal, in the test with HCT-15 colon, with HT29 colon and in the test on UACC-257 melanoma was more than 100 µM each time.

With `O=C(CO)C1CC2C=CC1C2` (stereo unspecified), the TGI with A498 renal, in the test on ACHN renal, with CCRF-CEM leukemia, in the test with HCT-15 colon, with HT29 colon and in the test on U251 CNS was more than 100 µM each time. This compound also returned a TGI with UACC-257 melanoma of more than 100 µM.

Consider `COc1ccc2nc3cc(Cl)ccc3c(N3CCN(c4ccnc(N5CCN(C)CC5)n4)CC3)c2c1`, for which the GI50 is 10.3 µM in the test with A498 renal; 1.75 µM in the test with ACHN renal; 1.61 µM in the test on CCRF-CEM leukemia; 1.6 µM in the test with HCT-15 colon; 1.74 µM in the test on HT29 colon; 1.79 µM in the test on MDA-MB-435. Besides, the GI50 is 3.66 µM in the test with NCI/ADR-RES ovarian, 1.77 µM in the test on U251 CNS and 11.4 µM in the test with UACC-257 melanoma. The TGI in the test with A498 renal was 40.7 µM; in the test with ACHN renal, 3.33 µM; in the test with CCRF-CEM leukemia, 4.15 µM; with HCT-15 colon, 3.21 µM; with HT29 colon, 3.67 µM; in the test with MDA-MB-435 it was 3.66 µM. The TGI with NCI/ADR-RES ovarian amounted to 12.4 µM; with U251 CNS, 3.43 µM; in the test on UACC-257 melanoma, 24.4 µM.

As for `CC(=O)CC(=O)CCC(=O)Nc1cccc(C(F)(F)F)c1`, the TGI with A498 renal, in the test on ACHN renal, with CCRF-CEM leukemia, in the test with HCT-15 colon, in the test with HT29 colon and in the test on U251 CNS was more than 100 µM each time. In the test with UACC-257 melanoma, this compound returned a TGI of more than 100 µM.

Regarding `CC(=O)[CH-]C(C)=O.CC(=O)[CH-]C(C)=O.CC(=O)[CH-]C(C)=O.[Ga+3]`, the GI50 in the test on ACHN renal, in the test with HCT-15 colon and with U251 CNS was more than 100 µM each time. In addition, the TGI with ACHN renal, in the test on HCT-15 colon and with U251 CNS was more than 100 µM each time.

As for `CC(C)OC(=O)C1Cc2c([nH]c3ccccc23)C(c2ccccc2)N1` (stereo unspecified), the TGI in the test with A498 renal, in the test with ACHN renal, with CCRF-CEM leukemia, with HCT-15 colon, in the test with HT29 colon and with U251 CNS was more than 100 µM each time. For the same compound, the TGI with UACC-257 melanoma was more than 100 µM.

Consider `Cc1ccc(C2=Nc3ccccc3SC(c3cccc4c3OCO4)C2)cc1` (stereo unspecified), for which the TGI in the test on A498 renal is 43.6 µM; in the test on ACHN renal, 53.8 µM; in the test on CCRF-CEM leukemia, 37.9 µM; in the test with HCT-15 colon, 54.1 µM; with HT29 colon, 33.2 µM; in the test with UACC-257 melanoma, 38.4 µM.

Take `N#CC1C(N)=NNC12Nc1ccccc1S2` (stereo unspecified): the GI50 is 20.1 µM in the test on ACHN renal; 15.5 µM in the test on HCT-15 colon; 13.9 µM in the test on MDA-MB-435; 17.7 µM with NCI/ADR-RES ovarian; 4.04 µM in the test with T-47D breast; 5.84 µM in the test on U251 CNS. For the same compound, the GI50 in the test with UACC-257 melanoma is 13.6 µM. For the same compound, the TGI was 53.3 µM in the test on ACHN renal; 64.2 µM in the test on HCT-15 colon; 51.3 µM in the test with MDA-MB-435; 54.1 µM in the test with NCI/ADR-RES ovarian; 50.3 µM in the test on T-47D breast; 20.3 µM in the test with U251 CNS. In the test on UACC-257 melanoma, this compound came in with a TGI of 44.4 µM.

With `O=C(c1c(O)cc(O)cc1O)C1Cc2ccccc21` (stereo unspecified), the TGI in the test on A498 renal, with ACHN renal, with CCRF-CEM leukemia, in the test with HCT-15 colon, in the test with HT29 colon and with U251 CNS was more than 100 µM throughout. Moreover, in the test with UACC-257 melanoma, the TGI is more than 100 µM.

`Clc1nc(Cl)c2ncn(CCOCCn3cnc4c(Cl)nc(Cl)nc43)c2n1`: the GI50 was 1.72 µM with A498 renal; 0.328 µM with ACHN renal; 0.226 µM in the test on CCRF-CEM leukemia; 0.185 µM in the test with HCT-15 colon; 0.204 µM in the test on MDA-MB-435; 0.216 µM with NCI/ADR-RES ovarian. Moreover, the GI50 in the test on U251 CNS was 0.174 µM; with UACC-257 melanoma it was 0.235 µM. The TGI stood at 3.2 µM in the test on A498 renal; 0.811 µM in the test with ACHN renal; 0.365 µM in the test with HCT-15 colon; 0.466 µM with MDA-MB-435; 0.424 µM in the test with NCI/ADR-RES ovarian; 0.313 µM in the test on U251 CNS. In the test on UACC-257 melanoma, this compound had a TGI of 0.488 µM.

With `CC(=O)OCC(CC[CH2][Sn]([Cl])([Cl])[c]1ccccc1)OC(C)=O` (stereo unspecified), the GI50 in the test on ACHN renal is 23.9 µM; in the test with CCRF-CEM leukemia it was 21.3 µM; in the test with HCT-15 colon, 17.4 µM; in the test with HT29 colon, 32.3 µM; with U251 CNS, 20.4 µM; with UACC-257 melanoma, 32.2 µM. In addition, the TGI in the test with ACHN renal was 42.6 µM; in the test with CCRF-CEM leukemia, 68.6 µM; with HCT-15 colon it was 32.1 µM; in the test with HT29 colon it was 94.9 µM; in the test with U251 CNS, 38.5 µM; in the test with UACC-257 melanoma, 95.4 µM.

As for `C[P+]1(c2ccccc2)CCCCC1`, the TGI with A498 renal, with ACHN renal, in the test with CCRF-CEM leukemia, in the test on HCT-15 colon, in the test on HT29 colon and in the test on U251 CNS was more than 100 µM each time. The compound also showed a TGI in the test on UACC-257 melanoma of more than 100 µM.

Regarding `O=[N+]([O-])/C=C/c1ccc(Cl)cc1Cl`, the TGI with ACHN renal worked out at 34.3 µM; in the test on CCRF-CEM leukemia, 20.8 µM; in the test on HCT-15 colon it was 46.4 µM; with HT29 colon, 21.8 µM; in the test with U251 CNS, 20.5 µM; in the test on UACC-257 melanoma it was 27.4 µM.

For `CC1CCC2(C)C(CC=C(C=O)C2(O)C=O)C12CO2` (stereo unspecified), the TGI in the test with A498 renal came out at 20.1 µM; in the test on ACHN renal, 3.93 µM; in the test with CCRF-CEM leukemia, 4.01 µM; in the test on HCT-15 colon it was 5.95 µM; in the test with HT29 colon it was 8.03 µM; with U251 CNS, 9.37 µM. The compound further displayed a TGI in the test on UACC-257 melanoma of 3.79 µM.

Regarding `O=C(Cc1ccccc1)C(c1ccccc1)S(=O)(=O)c1ccccc1` (stereo unspecified), the TGI in the test with A498 renal, in the test on ACHN renal, in the test on CCRF-CEM leukemia, in the test with HCT-15 colon, in the test on HT29 colon and with U251 CNS was more than 100 µM each time. In the test on UACC-257 melanoma, this compound showed a TGI of more than 100 µM.
